Consider 20 compounds from US6821980B1, “Substituted 5-benzyl-2,4-diaminopyrimidines” (Basilea Pharmaceutica AG, priority 1999, dated 2004).

The structures appear in SMILES notation. In brackets after ≈: the same amount, converted by molar mass. Where two headings read alike, the source gives them in different places.

Assay [1] deals with Streptococcus pneumoniae 1/1. As to the kind of experiment: MIC against Streptococcus pneumoniae 1/1. It is filed as cell-based. The settings on record: Streptococcus pneumoniae 1/1, trimethoprim- and penicillin-resistant, serotype 6, clinical isolate; for MIC: read-out: MIC Sp1/1.
For assay [2], the system named is Staphylococcus aureus 101. The assay can be described thus: MIC against Staphylococcus aureus 101. In kind it is cell-based. The settings on record: Staphylococcus aureus 101, MRSA- and trimethoprim-resistant, clinical isolate; for MIC: read-out: MIC Sa101.
For assay [3], the target named is T1, purified DHFR of strain Sp1/1 of Streptococcus pneumoniae (Streptococcus pneumoniae serotype 4, UniProt Q54801).
T1 sequence (Q54801 1-168 I100L): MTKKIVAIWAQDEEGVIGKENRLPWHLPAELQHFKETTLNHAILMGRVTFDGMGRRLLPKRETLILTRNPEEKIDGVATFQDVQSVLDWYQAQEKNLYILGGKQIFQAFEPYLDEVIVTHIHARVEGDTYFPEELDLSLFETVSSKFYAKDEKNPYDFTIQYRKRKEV
In kind it is biochemical. The note with it: IC50 against purified DHFR of strain Sp1/1.

The target in assay [4] is purified DHFR of strain 157/4696 of Staphylococcus aureus (Staphylococcus aureus, UniProt P13955). The assay can be described thus: biochemical.
Where [5] appears, read: Table 2, IC50 against purified DHFR of strain 157/4696 (highly trimethoprim-resistant; clinical isolate), read-out: DHFR Sa1.

Chain of purified DHFR of strain 157/4696 of Staphylococcus aureus (P13955 whole entry): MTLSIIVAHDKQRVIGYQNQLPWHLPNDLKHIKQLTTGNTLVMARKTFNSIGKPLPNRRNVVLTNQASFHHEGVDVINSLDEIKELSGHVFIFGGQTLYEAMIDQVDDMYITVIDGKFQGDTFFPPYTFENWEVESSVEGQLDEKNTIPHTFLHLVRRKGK

As for `CCOc1cc(Cc2cnc(N)nc2N)cc(OS(=O)(=O)C(C)C)c1-c1ccc(N)c(F)c1` [Example 33-b, Propane-2-sulphonic acid 4′-amino-4-(2,4-diamino-pyrimidin-5-ylmethyl)-6-ethoxy-3′-fluoro-4-ylmethyl-biphenyl-2-yl ester], the MIC in assay [1] (Table 2) is 1 µg/mL (≈ 2.1 µM); in assay [2] (Table 2) it was 2 µg/mL (≈ 4.21 µM). The IC50 was determined as 14 nM in assay [3] (Table 2) and 260 nM in assay [4].
Take `CCOc1cc(Cc2cnc(N)nc2N)cc(OS(=O)(=O)C(C)C)c1-c1cc(N)cc(F)c1` [Example 33-c, Propane-2-sulphonic acid 3′-amino-4-(2,4-diamino-pyrimidin-5-ylmethyl)-6-ethoxy-5′-fluoro-4-ylmethyl-biphenyl-2-yl ester]: the “MIC Sp1/1” value in assay [1] (Table 2) was 2 µg/mL (≈ 4.21 µM). For the same compound, the “MIC Sa101” value in assay [2] (Table 2) came out at 2 µg/mL (≈ 4.21 µM). The IC50 in assay [3] (Table 2) turned out to be 14 nM; in assay [4] (setting [5]) it was 100 nM.
As to `CCOc1cc(Cc2cnc(N)nc2N)cc(OS(=O)(=O)C(C)C)c1-c1ccc(CN2CCOCC2)c(N)c1` [Example 33-d, Propane-2-sulphonic acid 3′-amino-4-(2,4-diamino-pyrimidin-5-ylmethyl)-6-ethoxy-4′-morpholinemethyl-4-ylmethyl-biphenyl-2-yl ester], in assay [1] (Table 2), the “MIC Sp1/1” value is 2 µg/mL (≈ 3.59 µM). Further, the “MIC Sa101” value in assay [2] (Table 2) was 2 µg/mL (≈ 3.59 µM). The figures for the IC50 in assay [3] (Table 2) and in assay [4] (setting [5]) were 9.1 nM and 39 nM, respectively.
As for `CCOc1cc(Cc2cnc(N)nc2N)cc(OS(=O)(=O)C(C)C)c1-c1ccc(CN(C)C)c(N)c1` [Example 33-f, Propane-2-sulphonic acid 3′-amino-4-(2,4-diamino-pyrimidin-5-ylmethyl)-6-ethoxy-4′-dimethylaminomethyl-biphenyl-2-yl ester], the MIC in assay [1] (Table 2) stood at 8 µg/mL (≈ 15.5 µM); in assay [2] (Table 2), 2 µg/mL (≈ 3.89 µM). The IC50 in assay [3] (Table 2) was 89 nM; in assay [4] it was 42 nM.
Taken in the same sequence, the figures for `CCOc1cc(Cc2cnc(N)nc2N)cc(OS(=O)(=O)C(C)C)c1-c1ccc(C)nc1` [Example 33-g, Propane-2-sulphonic acid 5-(2,4-diamino-pyrimidin-5-ylmethyl)-3-ethoxy-2-(6-methyl-pyridin-3-yl)-phenyl ester] were 8 µg/mL (≈ 17.5 µM), 4 µg/mL (≈ 8.74 µM), 76 nM and 980 nM.
On to `CCOc1cc(Cc2cnc(N)nc2N)cc(OS(=O)(=O)C(C)C)c1-c1ccc(N)c(C)c1` [Example 33e, Propane-2-sulphonic acid 4′-amino-4-(2,4-diamino-pyrimidin-5-ylmethyl)-6-ethoxy-3′-methyl-biphenyl-2-yl ester], for which the MIC in assay [1] (Table 1) and in assay [2] (Table 1) was 1 µg/mL (≈ 2.12 µM) each time. Further, the IC50 in assay [3] (Table 1) worked out at 19 nM; in assay [4], 200 nM.
Consider `CCOc1cc(Cc2cnc(N)nc2N)cc(OS(=O)(=O)C2CC2)c1-c1cccc(N)c1` [Example 34-a, Cyclopropanesulphonic acid 3′-amino-4-(2,4-diamino-pyrimidin-5-ylmethyl)-6-ethoxy-bilphenyl-2-yl ester], for which the MIC was found to be 1 µg/mL (≈ 2.2 µM) in assay [1] (Table 2) and 2 µg/mL (≈ 4.39 µM) in assay [2] (Table 2). Besides, the IC50 in assay [3] (Table 2) was determined as 9.2 nM; in assay [4] it was 270 nM.
Regarding `CCOc1cc(Cc2cnc(N)nc2N)cc(OS(=O)(=O)C2CC2)c1-c1ccc(NC)cc1` [Example 34-b, Cyclopropanesulphonic acid 4-(2,4-diamino-Ryrimidin-5-ylmethyl)-6-ethoxy-4′-methylamino-biphenyl-2-yl ester], the MIC in assay [1] (Table 2) stood at 1 µg/mL (≈ 2.13 µM); in assay [2] (Table 2), 2 µg/mL (≈ 4.26 µM). Also, the IC50 was determined as 11 nM in assay [3] (Table 2) and 210 nM in assay [4].
For `CCOc1cc(Cc2cnc(N)nc2N)cc(OS(=O)(=O)C2CC2)c1-c1cc(N)cc(F)c1` [Example 34-c, Cyclopropanesulphonic acid 3′-amino-4-(2,4-diamino-pyrimidin-5-ylmethyl)-6-ethoxy-5′-fluoro-biphenyl-2-yl ester], in that order: 2 µg/mL (≈ 4.22 µM), 4 µg/mL (≈ 8.45 µM), 3.4 nM and 190 nM.
Consider `CCOc1cc(Cc2cnc(N)nc2N)cc(OS(=O)(=O)C2CC2)c1-c1ccc(N)c(C)c1` [Example 34-d, Cyclopropanesulphonic acid 4′-amino-4-(2,4-diamino-pyrimidin-5-ylmethyl)-6-ethoxy-3′-methyl-biphenyl-2-yl ester], for which the MIC in assay [1] (Table 2) was 1 µg/mL (≈ 2.13 µM); in assay [2] (Table 2), 2 µg/mL (≈ 4.26 µM). Besides, the IC50 is 2.4 nM in assay [3] (Table 2) and 140 nM in assay [4].
For the compound `CCOc1cc(Cc2cnc(N)nc2N)cc(OS(=O)(=O)C2CC2)c1-c1ccc(CN2CCOCC2)c(N)c1` [Example 34-e, Cyclopropanesulphonic acid 3′-amino-4-(2,4-diamino-pyrimidin-5-ylmethyl)-6-ethoxy-4′-morpholin-4-ylmethyl-biphenyl-2-yl ester], the MIC in assay [1] (Table 2) and in assay [2] (Table 2) was 4 µg/mL (≈ 7.21 µM) in each case. For the same compound, the IC50 worked out at 15 nM in assay [3] (Table 2) and 140 nM in assay [4].
With `CCOc1cc(Cc2cnc(N)nc2N)cc(OS(=O)(=O)C2CC2)c1-c1ccc(C)c(N)c1` [Example 34-f, Cyclopropanesulphonic acid 3′-amino-4-(2,4-diamino-pyrimidin-5-ylmethyl)-6-ethoxy-4′-methyl-biphenyl-2-yl ester], the MIC was 1 µg/mL (≈ 2.13 µM) in assay [1] (Table 2) and 2 µg/mL (≈ 4.26 µM) in assay [2] (Table 2). Also, the IC50 is 9.5 nM in assay [3] (Table 2) and 97 nM in assay [4].
Taken in the same sequence, the figures for `CCOc1cc(Cc2cnc(N)nc2N)cc(OS(=O)(=O)C(C)CC)c1-c1ccc(N)c(F)c1` (centres unmarked) [Example 35-b, Butane-2-sulphonic acid 4′-amino-4-(2,4-diamino-pyrimidin-5-ylmethyl)-6-ethoxy-3′-fluoro-biphenyl-2-yl ester] were 0.5 µg/mL (≈ 1.02 µM), 2 µg/mL (≈ 4.09 µM), 9 nM and 130 nM.
`CCOc1cc(Cc2cnc(N)nc2N)cc(OS(=O)(=O)C(C)CC)c1-c1ccc(CN2CCOCC2)c(N)c1` (centres unmarked) [Example 35-c, Butane-2-sulphonic acid 3′-amino-4-(2,4-diamino-pyrimidin-5-ylmethyl)-6-ethoxy-4′-morpholin-4-ylmethyl-biphenyl-2-yl ester]: the figures for the MIC in assay [1] (Table 2) and in assay [2] (Table 2) were 1 µg/mL (≈ 1.75 µM) and 2 µg/mL (≈ 3.5 µM), respectively. Also, the values for the IC50 in assay [3] (Table 2) and in assay [4] were 4.6 nM and 43 nM, respectively.
Consider `CCOc1cc(Cc2cnc(N)nc2N)cc(OS(=O)(=O)C(C)CC)c1-c1ccc(OC)c(N)c1` (centres unmarked) [Example 35-d, Butane-2-sulphonic acid 3′-amino-4-(2,4-diamino-gyrimidin-5-ylmethyl)-6-ethoxy-4′-methoxy-biphenyl-2-yl ester], for which the results for the MIC in assay [1] (Table 2) and in assay [2] (Table 2) were 1 µg/mL (≈ 1.99 µM) and 2 µg/mL (≈ 3.99 µM), respectively. Besides, the IC50 in assay [3] (Table 2) is 4.3 nM; in assay [4], 95 nM.
Turning to `CCOc1cc(Cc2cnc(N)nc2N)cc(OS(=O)(=O)C(C)CC)c1-c1ccc(NCCO)cc1` (centres unmarked) [Example 35-f, Butane-2-sulphonic acid 4-(2,4-diamino-pyrimidin-5-ylmethyl)-6-ethoxy-4′-(2-hydroxy-ethylamino)-biphenyl-2-yl ester], the MIC in assay [1] (Table 2) is 0.5 µg/mL (≈ 0.97 µM); in assay [2] (Table 2) it was 4 µg/mL (≈ 7.76 µM). The IC50 in assay [3] (Table 2) worked out at 8.5 nM; in assay [4], 120 nM.
With `CCOc1cc(Cc2cnc(N)nc2N)cc(OS(=O)(=O)C(C)CC)c1-c1ccc(N)cc1` (centres unmarked) [Example 35a, Butane-2-sulphonic acid 4′-amino-4-(2,4-diamino-pyrimidin-5-ylmethyl)-6ethoxy-biphenyl-2-yl ester], the MIC in assay [1] (Table 1) amounted to 0.5 µg/mL (≈ 1.06 µM); in assay [2] (Table 1), 2 µg/mL (≈ 4.24 µM). Besides, the IC50 was found to be 3.7 nM in assay [3] (Table 1) and 110 nM in assay [4].
Turning to `CCOc1cc(Cc2cnc(N)nc2N)cc(OS(=O)(=O)C(C)CC)c1-c1ccc(N)c(C)c1` (centres unmarked) [Example 35e, Butane-2-sulphonic acid 4′-amino-4-(2,4-diamino-pyrimidin-5-ylmethyl)-6-ethoxy-3′-methyl-biphenyl-2-yl ester], the MIC worked out at 0.5 µg/mL (≈ 1.03 µM) in assay [1] (Table 1) and 1 µg/mL (≈ 2.06 µM) in assay [2] (Table 1). Further, the IC50 is 4.6 nM in assay [3] (Table 1) and 62 nM in assay [4].
For `CCOc1cc(Cc2cnc(N)nc2N)cc(OS(=O)(=O)CC(C)C)c1-c1ccc(N)c(C)c1` [Example 36-a, 2-Methyl-propane-1-sulphonic acid 4′-amino-4-(2,4-diamino-pyrimidin-5-ylmethyl)-6-ethoxy-3′-methyl-biphenyl-2-yl ester], the MIC was 0.25 µg/mL (≈ 0.515 µM) in assay [1] (Table 2) and 2 µg/mL (≈ 4.12 µM) in assay [2] (Table 2). For the same compound, the IC50 in assay [3] (Table 2) was found to be 3.3 nM; in assay [4], 32 nM.
`CCOc1cc(Cc2cnc(N)nc2N)cc(OS(=O)(=O)CC(C)C)c1-c1ccc(N)c(F)c1` [Example 36-b, 2-Methyl-propane-1-sulphonic acid 4′-amino-4-(2,4-diamino-pyrimidin-5-ylmethyl)-6-ethoxy-3′-fluoro-biphenyl-2-yl ester]: the results for the MIC in assay [1] (Table 2) and in assay [2] (Table 2) were 0.5 µg/mL (≈ 1.02 µM) and 8 µg/mL (≈ 16.3 µM), respectively. The IC50 in assay [3] (Table 2) was found to be 5.8 nM; in assay [4], 230 nM.
